According to paper PMC6983366, “A de novo peroxidase is also a promiscuous yet stereoselective carbene transferase” (Proceedings of the National Academy of Sciences of the …, 2020):

Assays:
Rma-TDE = target: T1, Rma-TDE (Rhodothermus marinus, UniProt B3FQS5, V103T/M128D/M131E); assay: stopped-flow UV/visible kinetics of heme carbene formation; type: biochemical; conditions: read-out: K1 (pseudo-Michaelis constant); ferrous protein, anaerobic, pH 8.6, 100 mM KCl, 20 mM CHES, 5 °C, ethanol present; no acceptor; single-turnover metallocarbenoid formation; covalent heme adduct
T1 construct: gene cytC; engineered triple variant TDE of c-type cytochrome; synthetic gene, periplasmic expression from pSHT in E. coli T7 Express
T1 sequence (B3FQS5 entry or part of it V103T/M128D/M131E): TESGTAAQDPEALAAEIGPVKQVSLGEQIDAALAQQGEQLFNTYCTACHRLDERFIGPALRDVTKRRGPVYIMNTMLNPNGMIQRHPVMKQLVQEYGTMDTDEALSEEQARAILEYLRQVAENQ

C45 = test system: T2, C45; assay: as above; type: biochemical, synthetic construct; conditions: ferrous protein, anaerobic, pH 8.6, 100 mM KCl, 20 mM CHES, 5 °C, ethanol present; no acceptor; single-turnover metallocarbenoid formation; covalent heme adduct; read-out: K1 (pseudo-Michaelis constant)
T2 construct: de novo 4-helix bundle with covalently attached heme C

Compound: CCOC(=O)C=[N+]=[N-] [EDA]
- Km (Rma-TDE): 490 µM
- Km (C45): 74 µM
